The values below come from US11459338B2, “Heterocyclic compounds as PRMT5 inhibitors” (JUBILANT EPISCRIBE LLC, priority 2018, dated 2022).

SMILES strings stand for the structures.

In one assay the test system is Z-138 cells. The experiment in a line: Z-138 long term proliferation assay (Cell Titer Glo). The class given is cell-based. The settings on record: Homo sapiens, 192 h; Z-138 cells, cell viability, day 8; read-out: PRMT5 Z138 GI50 Day 8 μM. As to the method:
A compound source plate was prepared by performing ten-point 3-fold dilution in DMSO, such that the final top concentration of the compound was 10 μM, and DMSO was 0.3%. The total volume of compounds added was 20 μL. The cells were incubated for 96 h at 37° C., 5% CO2. […] The cells were re-treated with the compounds and incubated for an additional four days. Cell viability was measured on both day 4 and day 8, by adding 25 μL of Cell Titer Glo reagent to an equal volume of cell suspension. Luminescence was read on a PerkinElmer Victor3 multiplate reader. The concentration of compound inhibiting cell viability by 50% was determined using a 4-parameter, variable slope fit of the normalized dose response curves.
In general terms: In ATP-based viability assays light output follows the ATP content of the culture.

In the next assay the target is T1, PRMT5/MEP50 (Homo sapiens, UniProt O14744).
T1 construct: Full-length human PRMT5 (NP_006100)
The experiment in a line: PRMT5/MEP50 enzyme assay on peptide substrates (3H-SAM Flashplate). The class given is biochemical. Conditions: PRMT5/MEP50 10 nM, H4 1-15aa peptide 100 nM, 3H-SAM 1 μM. The source says: General materials like S-adenocylmethionine (SAM), S-adenosylhomocysteine (SAH), Tris-HCl, DTT, […] (BSA) and Tween-20 were purchased from Sigma-Aldrich. 3H-SAM and 384-well streptavidin Flashplates were purchased from Perkin Elmer. Substrates that were used were Peptide representative of human Histone 4 residues 1-15 which was purchased from Rockland antibodies and assays.
PRMT5/MEP50 Enzyme assay on Peptide Substrates.
The assays were all performed in a buffer consisting of 50 mMTris-HCl, pH 8, 1 mM DTT, 0.01% BSA, 0.01% Tween-20, prepared on the day of use. Test compounds were diluted 3-fold in assay buffer (final DMSO concentration of 1%) and added into a 384-well OptiPlate (PerkinElmer, #6007290). A cocktail (10 μL) of PRMT5/MEP50 enzyme and the peptide was added to the wells. The compounds were allowed to incubate with PRMT5/MEP50 for 30 min at room temperature, then 5 μL of ^3H-SAM was added to initiate the reaction. The final concentrations of the components were as follows: PRMT5/MEP50-10 nM, H4, 1-15aa peptide-100 nM, ^3H-SAM-1 μM. The assays were stopped by the addition of 1 mM SAH. 25 μL of the reaction from the 384-well OptiPlate was then transferred to a 384-well Flashplate and the biotinylated peptides were allowed to bind to the streptavidin surface for at least 1 h, before being washed twice with 50 mMTris-HCl, pH 8, 0.1% Tween-20. The plates were then read in a PerkinElmer Topcount plate reader to measure the quantity of ^3H-labeled peptide bound to the Flashplate surface measured as disintegrations per minute (dpm), also referred to as counts per minute (cpm).
The IC50 values were calculated using a 4-parameter variable slope fit algorithm (cpm—counts per minute, cmpd—signal in assay well, and cpmmax and cpmmin mare the respective minimum and maximum signal controls).

T1 sequence (O14744 whole entry): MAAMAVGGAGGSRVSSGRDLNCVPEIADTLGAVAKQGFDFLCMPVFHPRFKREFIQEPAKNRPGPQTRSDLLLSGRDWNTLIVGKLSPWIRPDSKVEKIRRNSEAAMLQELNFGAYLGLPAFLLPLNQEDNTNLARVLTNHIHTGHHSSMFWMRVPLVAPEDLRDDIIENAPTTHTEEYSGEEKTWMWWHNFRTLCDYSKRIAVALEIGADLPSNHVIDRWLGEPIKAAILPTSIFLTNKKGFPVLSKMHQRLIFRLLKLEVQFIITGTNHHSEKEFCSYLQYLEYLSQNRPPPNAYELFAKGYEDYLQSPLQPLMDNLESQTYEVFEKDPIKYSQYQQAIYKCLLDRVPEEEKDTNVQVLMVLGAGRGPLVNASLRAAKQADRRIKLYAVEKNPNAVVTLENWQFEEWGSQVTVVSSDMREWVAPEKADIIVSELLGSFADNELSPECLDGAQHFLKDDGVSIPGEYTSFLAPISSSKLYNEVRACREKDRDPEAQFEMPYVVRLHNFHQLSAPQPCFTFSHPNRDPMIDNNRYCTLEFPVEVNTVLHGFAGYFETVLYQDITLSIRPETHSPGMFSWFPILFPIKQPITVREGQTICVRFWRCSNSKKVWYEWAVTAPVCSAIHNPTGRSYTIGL
T1 sequence (Q9BQA1 whole entry partner): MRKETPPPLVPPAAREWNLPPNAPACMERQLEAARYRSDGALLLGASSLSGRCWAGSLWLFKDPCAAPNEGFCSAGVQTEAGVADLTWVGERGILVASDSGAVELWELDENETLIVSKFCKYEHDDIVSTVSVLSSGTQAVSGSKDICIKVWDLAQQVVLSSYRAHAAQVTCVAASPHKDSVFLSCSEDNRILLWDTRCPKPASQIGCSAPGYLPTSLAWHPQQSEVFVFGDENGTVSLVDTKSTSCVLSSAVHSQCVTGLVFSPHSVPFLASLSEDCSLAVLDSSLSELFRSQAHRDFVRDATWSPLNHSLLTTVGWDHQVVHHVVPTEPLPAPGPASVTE

The term GI50 denotes the concentration at which growth is held to half of that of the control. By IC50 is commonly meant the concentration needed to halve the response being measured. Read a high IC50 as lower potency. Regarding `O=C(NC[C@H](O)[C@@H](O)CN1CCc2ccccc2C1)c1cn2cc(C(F)(F)F)ccc2n1` [Example 76, N-((2S,3S)-4-(3,4-dihydroisoquinolin-2(1H)-yl)-2,3-dihydroxybutyl)-6-(trifluoromethyl)imidazo[1,2-a]pyridine-2-carboxamide], the GI50 in the assay on Z-138 cells is 10 to 1000 nM. The IC50 against PRMT5/MEP50 lay within 10 to 1000 nM.

Turning to `O=C(NC[C@@H](O)[C@H](O)CN1CCc2ccccc2C1)c1cn2cc(C(F)(F)F)ccc2n1` [Example 77, N-((2R,3R)-4-(3,4-dihydroisoquinolin-2(1H)-yl)-2,3-dihydroxybutyl)-6-(trifluoromethyl)imidazo[1,2-a]pyridine-2-carboxamide], the GI50 with Z-138 cells is 10 to 1000 nM. The compound also yielded an IC50 at PRMT5/MEP50 of 10 to 1000 nM.

Turning to `Cc1nc(-c2ccc3nc(C(=O)NC[C@H](O)[C@@H](O)CN4CCc5ccccc5C4)cn3c2)no1` [Example 78, N-((2S,3S)-4-(3,4-dihydroisoquinolin-2(1H)-yl)-2,3-dihydroxybutyl)-6-(5-methyl-1,2,4-oxadiazol-3-yl)imidazo[1,2-a]pyridine-2-carboxamide], in the assay on Z-138 cells, the GI50 fell in the range of 10 to 1000 nM. Besides, the IC50 against PRMT5/MEP50 was 10 to 1000 nM.

As for `O=C(NC[C@H](O)[C@@H](O)CN1CCc2ccccc2C1)c1cn2cc(-c3cnn([C@@H]4CCOC4)c3)ccc2n1` [Example 79, N-((2S,3S)-4-(3,4-dihydroisoquinolin-2(1H)-yl)-2,3-dihydroxybutyl)-6-(1-((R)-tetrahydrofuran-3-yl)-1H-pyrazol-4-yl)imidazo[1,2-a]pyridine-2-carboxamide], the GI50 with Z-138 cells is 10 to 1000 nM. Also, the IC50 against PRMT5/MEP50 was 10 to 1000 nM.

Take `Cn1ccc(-c2ccc3nc(C(=O)NC[C@H](O)[C@@H](O)CN4CCc5ccccc5C4)cn3c2)cc1=O` [Example 80, N-((2S,3S)-4-(3,4-dihydroisoquinolin-2(1H)-yl)-2,3-dihydroxybutyl)-6-(1-methyl-2-oxo-1,2-dihydropyridin-4-yl)imidazo[1,2-a]pyridine-2-carboxamide]: the GI50 with Z-138 cells was 10 to 1000 nM. Also, the IC50 against PRMT5/MEP50 was in the range of 10 to 1000 nM.

`Cn1cc(-c2ccc3nc(C(=O)NC[C@H](O)[C@@H](O)CN4CCc5ccccc5C4)cn3c2)cn1` [Example 81, N-((2S,3S)-4-(3,4-dihydroisoquinolin-2(1H)-yl)-2,3-dihydroxybutyl)-6-(1-methyl-1H-pyrazol-4-yl)imidazo[1,2-a]pyridine-2-carboxamide]: the GI50 in the assay with Z-138 cells fell in the range of 10 to 1000 nM. This compound also registered an IC50 against PRMT5/MEP50 of 10 to 1000 nM.

Regarding `Cn1cc(-c2ccc3nc(C(=O)NC[C@H](O)CN4CCc5cc(F)ccc5C4)cn3c2)cn1` [Example 82, (S)—N-(3-(6-fluoro-3,4-dihydroisoquinolin-2(1H)-yl)-2-hydroxypropyl)-6-(1-methyl-1H-pyrazol-4-yl)imidazo[1,2-a]pyridine-2-carboxamide], the GI50 in the assay with Z-138 cells was in the range of 1000 to 5000 nM. Also, the IC50 against PRMT5/MEP50 was 1000 to 5000 nM.

With `O=C(NC[C@H](O)CN1CCc2cc(F)ccc2C1)c1cn2nc(C(F)(F)F)ccc2n1` [Example 83, (S)—N-(3-(6-fluoro-3,4-dihydroisoquinolin-2(1H)-yl)-2-hydroxypropyl)-6-(trifluoromethyl)imidazo[1,2-b]pyridazine-2-carboxamide], the GI50 with Z-138 cells is above 5000 nM. The IC50 on PRMT5/MEP50 is above 5000 nM.

On to `O=C(NC[C@H](O)CN1CCc2cc(F)ccc2C1)c1cn2cc(C(F)(F)F)ncc2n1` [Example 84, (S)—N-(3-(6-fluoro-3,4-dihydroisoquinolin-2(1H)-yl)-2-hydroxypropyl)-6-(trifluoromethyl)imidazo[1,2-a]pyrazine-2-carboxamide], for which the GI50 in the assay with Z-138 cells was in the range of 1000 to 5000 nM. This compound gave an IC50 at PRMT5/MEP50 of 1000 to 5000 nM.

Turning to `Cn1ccc(-c2cn3cc(C(=O)NC[C@H](O)CN4CCc5cc(F)ccc5C4)nc3cn2)cc1=O` [Example 85, (S)—N-(3-(6-fluoro-3,4-dihydroisoquinolin-2(1H)-yl)-2-hydroxypropyl)-6-(1-methyl-2-oxo-1,2-dihydropyridin-4-yl)imidazo[1,2-a]pyrazine-2-carboxamide], in the assay with Z-138 cells, the concentration for 50% growth inhibition (GI50) fell in the range of 1000 to 5000 nM. The compound further yielded an IC50 at PRMT5/MEP50 of 1000 to 5000 nM.

Turning to `CN(C[C@H](O)CN1CCc2ccccc2C1)C(=O)c1cn2cc(C(F)(F)F)ccc2n1` [Example 88, (R)—N-(3-(3,4-dihydroisoquinolin-2(1H)-yl)-2-hydroxypropyl)-N-methyl-6-(trifluoromethyl)imidazo[1,2-a]pyridine-2-carboxamide], in the assay on Z-138 cells, the 50% growth inhibitory concentration (GI50) lay in the range of 10 to 1000 nM. Besides, the IC50 against PRMT5/MEP50 fell in the range of 10 to 1000 nM.

In the case of `CN(C[C@H](O)CN1CCc2ccccc2C1)C(=O)c1cn2cc(C(F)(F)F)ncc2n1` [Example 89, (R)—N-(3-(3,4-dihydroisoquinolin-2(1H)-yl)-2-hydroxypropyl)-N-methyl-6-(trifluoromethyl)imidazo[1,2-a]pyrazine-2-carboxamide], in the assay on Z-138 cells, the GI50 was in the range of 10 to 1000 nM. Moreover, the IC50 against PRMT5/MEP50 is 10 to 1000 nM.

Regarding `CN(C[C@H](O)CN1CCc2ccccc2C1)C(=O)c1cc2nc(C(F)(F)F)ccn2n1` [Example 90, (R)—N-(3-(3,4-dihydroisoquinolin-2(1H)-yl)-2-hydroxypropyl)-N-methyl-5-(trifluoromethyl)pyrazolo[1,5-a]pyrimidine-2-carboxamide], in the assay on Z-138 cells, the GI50 was above 5000 nM. The compound also displayed an IC50 at PRMT5/MEP50 of 1000 to 5000 nM.

In the case of `CN(C[C@H](O)CN1CCc2ccccc2C1)C(=O)c1cn2nc(C(F)(F)F)ccc2n1` [Example 91, (R)—N-(3-(3,4-dihydroisoquinolin-2(1H)-yl)-2-hydroxypropyl)-N-methyl-6-(trifluoromethyl)imidazo[1,2-b]pyridazine-2-carboxamide], the GI50 in the assay on Z-138 cells is above 5000 nM. The IC50 against PRMT5/MEP50 fell in the range of 1000 to 5000 nM.

For `CN(C[C@H](O)CN1CCc2ccccc2C1)C(=O)c1cn2cc(-c3cnn(C)c3)ncc2n1` [Example 92, (R)—N-(3-(3,4-dihydroisoquinolin-2(1H)-yl)-2-hydroxypropyl)-N-methyl-6-(1-methyl-1H-pyrazol-4-yl)imidazo[1,2-a]pyrazine-2-carboxamide], the GI50 with Z-138 cells fell in the range of 1000 to 5000 nM. The compound further showed an IC50 at PRMT5/MEP50 of 10 to 1000 nM.

`CN(C[C@H](O)CN1CCc2ccccc2C1)C(=O)c1cn2cc(-c3ccc(=O)n(C)c3)ncc2n1` [Example 94, (R)—N-(3-(3,4-dihydroisoquinolin-2(1H)-yl)-2-hydroxypropyl)-N-methyl-6-(1-methyl-6-oxo-1,6-dihydropyridin-3-yl)imidazo[1,2-a]pyrazine-2-carboxamide]: in the assay on Z-138 cells, the GI50 is 1000 to 5000 nM. Besides, the IC50 against PRMT5/MEP50 lay in the range of 1000 to 5000 nM.

As to `CN(C[C@H](O)CN1CCc2ccccc2C1)C(=O)c1cn2cc(-c3ccc(C#N)cc3)ncc2n1` [Example 95, (R)-6-(4-cyanophenyl)-N-(3-(3,4-dihydroisoquinolin-2(1H)-yl)-2-hydroxypropyl)-N-methylimidazo[1,2-a]pyrazine-2-carboxamide], in the assay with Z-138 cells, the GI50 was 10 to 1000 nM. At PRMT5/MEP50, this compound showed an IC50 of 10 to 1000 nM.

`O=C(NCC(O)CNC1Cc2ccccc2C1)c1cn2cc(C3CCOCC3)ccc2n1` (stereo not drawn) [Example 97, N-(3-((2,3-dihydro-1H-inden-2-yl)amino)-2-hydroxypropyl)-6-(tetrahydro-2H-pyran-4-yl)imidazo[1,2-a]pyridine-2-carboxamide]: the GI50 in the assay with Z-138 cells lay within 10 to 1000 nM. Also, the IC50 at PRMT5/MEP50 lay within 10 to 1000 nM.

Regarding `CC(=O)N1CCC(c2ccc3nc(C(=O)NCC(O)CNC4Cc5ccccc5C4)cn3c2)CC1` (stereo not drawn) [Example 98, 6-(1-acetylpiperidin-4-yl)-N-(3-((2,3-dihydro-1H-inden-2-yl)amino)-2-hydroxypropyl)imidazo[1,2-a]pyridine-2-carboxamide], the GI50 in the assay on Z-138 cells was in the range of 10 to 1000 nM. Further, the IC50 on PRMT5/MEP50 fell in the range of 10 to 1000 nM.

As for `Cn1ccc(-c2ccc3nc(C(=O)NCC(O)CNC4Cc5ccccc5C4)cn3c2)cc1=O` (stereo not drawn) [Example 99, N-(3-((2,3-dihydro-1H-inden-2-yl)amino)-2-hydroxypropyl)-6-(1-methyl-2-oxo-1,2-dihydropyridin-4-yl)imidazo[1,2-a]pyridine-2-carboxamide], in the assay with Z-138 cells, the GI50 lay in the range of 10 to 1000 nM. The compound further came in with an IC50 against PRMT5/MEP50 of 10 to 1000 nM.

In the case of `O=C(NCC(O)CN1CCc2ccccc2C1)c1cn2c(n1)CCCC2` (stereo not drawn) [Example 101, N-(3-(3,4-dihydroisoquinolin-2(1H)-yl)-2-hydroxypropyl)-5,6,7,8-tetrahydroimidazo[1,2-a]pyridine-2-carboxamide], the GI50 in the assay on Z-138 cells was above 5000 nM. This compound displayed an IC50 against PRMT5/MEP50 of 1000 to 5000 nM.
